Laboratory results published in paper PMC11732138, “Gold complex compounds that inhibit drug-resistant Staphylococcus aureus by targeting thioredoxin reductase” (Frontiers in Antibiotics, 2023).
Values after ≈ are worked out from the molar mass of the structure shown.

Key:
[1] = system: S. aureus MW2 biofilm formation; test: Biofilm formation inhibition; assay type: cell-based, Staphylococcus aureus; conditions: 24 h, Alamar Blue
Description: (§1) Diluted bacterial cells were added to 100 μL of test compounds (serially diluted 16 to 0 μg/mL) and incubated for 24 h to assess the biofilm formation inhibition. For the disruption of matured biofilm, diluted cells in 100 μL were added to the 96-well plate and incubated for 24 h with no agitation. […] Biofilm assays were completed in triplicate.

[2] = system: K. pneumoniae ATCC 77326; test: Broth microdilution MIC, K. pneumoniae; assay type: cell-based, Klebsiella pneumonia; conditions: Klebsiella pneumoniae, ATCC77326
Description: (§2) In vitro antibiotic susceptibilities were determined using the broth microdilution assay established by the Clinical and Laboratory Standards Institute ([Clinical and Laboratory Standards Institute, 2012]). Broth microdilution assays were carried out with 2 biological replicates, each in triplicate, Mueller–Hinton broth (MHB; BD Biosciences, Franklin Lakes, NJ, USA) with a total assay volume of 100 μL in 96-well plates (BD Biosciences, Franklin Lakes, NJ, USA). Two-fold serial dilutions of compounds were prepared at a range of 0.01– 64 μg/mL in 50 μL of MHB. The initial bacterial inoculum was adjusted to OD600 0.06, 50 μL was, added to the test compounds, and then incubated at 35°C for 18 h. Post incubation, OD600 was measured using a Vmax microplate reader (Molecular Devices, San Jose, CA), and the lowest concentration of test compound that suppressed bacterial growth was reported as the MIC. Broth culture from the MIC assay (10 μL) was plated on Mueller–Hinton agar (BD Biosciences, Franklin Lakes, NJ, USA), and colony-forming units (CFUs) were enumerated after overnight incubation at 37°C.

[3] = system: S. aureus MW2; test: Broth microdilution MIC, S. aureus MW2; assay type: cell-based, Staphylococcus aureus; conditions: Staphylococcus aureus, MRSA, 18 h
Description: as §2

[4] = system: renal proximal tubule epithelial cells; test: Renal proximal tubule epithelial cell toxicity; assay type: cell-based, human; conditions: at the tested concentrations
[5] = system: mature S. aureus biofilm; test: Disruption of mature biofilm; assay type: cell-based, Staphylococcus aureus; conditions: preformed 24 h biofilm, Alamar Blue
Description: as §1

[6] = system: E. faecium ATCC E007; test: Broth microdilution MIC, E. faecium; assay type: cell-based, Enterococcus faecium; conditions: Enterococcus faecium, ATCCE007
Description: as §2

[7] = system: Enterobacter (EAE 2625); test: Broth microdilution MIC, Enterobacter; assay type: cell-based, Enterobacter spp.; conditions: Enterobacter
Description: as §2

[8] = system: A. baumannii 17978; test: Broth microdilution MIC, A. baumannii; assay type: cell-based, Acinetobacter baumannii; conditions: Acinetobacter baumannii, 17978
Description: as §2

[9] = system: P. aeruginosa PA14; test: Broth microdilution MIC, P. aeruginosa; assay type: cell-based, Pseudomonas aeruginosa; conditions: Pseudomonas aeruginosa, PA14
Description: as §2

[10] = system: clinical isolates of S. aureus; test: MIC against clinical isolates of S. aureus; assay type: cell-based; conditions: Staphylococcus aureus
Description: Broth microdilution assays were carried out with 2 biological replicates, each in triplicate, Mueller–Hinton broth (MHB; BD Biosciences, Franklin Lakes, NJ, USA) with a total assay volume of 100 μL in 96-well plates (BD Biosciences, Franklin Lakes, NJ, USA). […] The initial bacterial inoculum was adjusted to OD600 0.06, 50 μL was, added to the test compounds, and then incubated at 35°C for 18 h. Post incubation, OD600 was measured using a Vmax microplate reader (Molecular Devices, San Jose, CA), and the lowest concentration of test compound that suppressed bacterial growth was reported as the MIC.
Isolates were tested as 2 biological replicates.

[11] = system: H. pylori 49503; test: Broth microdilution MIC, H. pylori; assay type: cell-based, Helicobacter pylori; conditions: Helicobacter pylori, 49503
Description: as §2

**Q.** How did the “concentration that inhibited biofilm formation (P<0.01)” value [1] turn out when `CN[C@H](CC(C)C)C(=O)N[C@H]1C(=O)N[C@@H](CC(N)=O)C(=O)N[C@H]2C(=O)N[C@H]3C(=O)N[C@H](C(=O)N[C@H](C(=O)O)c4cc(O)cc(O)c4-c4cc3ccc4O)[C@H](O)c3ccc(c(Cl)c3)Oc3cc2cc(c3O[C@@H]2O[C@H](CO)[C@@H](O)[C@H](O)[C@H]2O[C@H]2C[C@](C)(N)[C@H](O)[C@H](C)O2)Oc2ccc(cc2Cl)[C@H]1O` [Vancomycin] was run?
**A.** 1 µg/mL

**Q.** And the MIC [2]?
**A.** > 64 µg/mL

**Q.** What about the MIC [3] of the same compound?
**A.** 1 µg/mL (≈ 0.69 µM)

**Q.** What about the “impact on renal proximal tubule epithelial cells (in words)” value [4] of the same compound?
**A.** did not impact

**Q.** And the “concentration that significantly reduced mature biofilm” value [5]?
**A.** 2 µg/mL

**Q.** And the MIC [6]?
**A.** 1 µg/mL (≈ 0.69 µM)

**Q.** What about the MIC [7] of the same compound?
**A.** > 64 µg/mL

**Q.** And the MIC [8]?
**A.** > 64 µg/mL

**Q.** What about the MIC [9] of the same compound?
**A.** > 64 µg/mL

**Q.** And the MIC ([10]; isolate BFSA12)?
**A.** 1 µg/mL (≈ 0.69 µM)

**Q.** What about the MIC ([10]; isolate BFSA13) of the same compound?
**A.** 1 µg/mL (≈ 0.69 µM)

**Q.** And the MIC ([10]; isolate BFSA15)?
**A.** 1 µg/mL (≈ 0.69 µM)

**Q.** What about the MIC ([10]; isolate BFSA16) of the same compound?
**A.** 1 µg/mL (≈ 0.69 µM)

**Q.** And the MIC ([10]; isolate BFSA17)?
**A.** 1 µg/mL (≈ 0.69 µM)

**Q.** What about the MIC ([10]; isolate BFSA18) of the same compound?
**A.** 2 µg/mL (≈ 1.38 µM)

**Q.** What about the MIC ([10]; isolate BFSA19) of the same compound?
**A.** 1 µg/mL (≈ 0.69 µM)

**Q.** And the MIC ([10]; isolate BFSA20)?
**A.** 1 µg/mL (≈ 0.69 µM)

**Q.** And the MIC ([10]; isolate BFSA21)?
**A.** 2 µg/mL (≈ 1.38 µM)

**Q.** And the MIC ([10]; isolate BFSA22)?
**A.** 2 µg/mL (≈ 1.38 µM)

**Q.** And the MIC ([10]; isolate BFSA24)?
**A.** 1 µg/mL (≈ 0.69 µM)

**Q.** What about the MIC ([10]; isolate BFSA26) of the same compound?
**A.** 2 µg/mL (≈ 1.38 µM)

**Q.** What about the MIC ([10]; isolate BFSA29) of the same compound?
**A.** 1 µg/mL (≈ 0.69 µM)

**Q.** And the MIC ([10]; isolate BFSA30)?
**A.** 1 µg/mL (≈ 0.69 µM)

**Q.** What about the MIC ([10]; isolate BFSA31) of the same compound?
**A.** 2 µg/mL (≈ 1.38 µM)

**Q.** What about the MIC ([10]; isolate BFSA32) of the same compound?
**A.** 2 µg/mL (≈ 1.38 µM)

**Q.** What about the MIC ([10]; isolate BFSA33) of the same compound?
**A.** 2 µg/mL (≈ 1.38 µM)

**Q.** What about the MIC ([10]; isolate BFSA34) of the same compound?
**A.** 1 µg/mL (≈ 0.69 µM)

**Q.** And the MIC ([10]; isolate BFSA35)?
**A.** 1 µg/mL (≈ 0.69 µM)

**Q.** And the MIC ([10]; isolate BFSA36)?
**A.** 2 µg/mL (≈ 1.38 µM)

**Q.** What about the MIC ([10]; isolate BFSA37) of the same compound?
**A.** 1 µg/mL (≈ 0.69 µM)

**Q.** What about the MIC ([10]; isolate BFSA38) of the same compound?
**A.** 1 µg/mL (≈ 0.69 µM)

**Q.** What about the MIC ([10]; isolate BFSA39) of the same compound?
**A.** 1 µg/mL (≈ 0.69 µM)

**Q.** What about the MIC ([10]; isolate BFSA148) of the same compound?
**A.** 1 µg/mL (≈ 0.69 µM)

**Q.** And the MIC ([10]; isolate BFSA149)?
**A.** 2 µg/mL (≈ 1.38 µM)

**Q.** And the MIC ([10]; isolate BFSA150)?
**A.** 1 µg/mL (≈ 0.69 µM)

**Q.** What about the MIC ([10]; isolate BFSA151) of the same compound?
**A.** 1 µg/mL (≈ 0.69 µM)

**Q.** And the MIC ([10]; isolate BFSA152)?
**A.** 2 µg/mL (≈ 1.38 µM)

**Q.** And the MIC ([10]; isolate BFSA153)?
**A.** 2 µg/mL (≈ 1.38 µM)

**Q.** What about the MIC ([10]; isolate BFSA155) of the same compound?
**A.** 1 µg/mL (≈ 0.69 µM)

**Q.** What about the MIC [11] of the same compound?
**A.** > 64 µg/mL
